Legend:
[1] = test system: Akt phosphorylation induced by IGF-1R; assay: Western blot analysis of Akt phosphorylation induced by IGF-1 in HT-29 cells; format: cell-based, Human; settings: for Levels of phosphorylated AKT in treated cells (pAKT/actin): HT-29 cells, IGF-1; for p-AKT relative to levels with 0.1 nM compound: Table B2 lower part; for Normalized phosphorylated AKT (relative to actin) levels relative to 0.1 nM compound treatment: Table B2 upper part
Method in brief: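 Phospho-Akt assessed by western blot in serum-depleted (24 h) human colon carcinoma HT-29 cells. Compounds applied for 2 h at 0.1–100 (0.1, 1, 10, 100); vehicle DMSO and 10 ng/mL IGF-1 served as controls. Protein in cleared lysates measured by BCA assay.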

IGF-1R = biological target: T1, IGF-1R (Homo sapiens, UniProt P08069); assay: In vitro IGF-1R enzymatic assay (ADP-Glo kinase assay); format: biochemical; settings: activated IGF-1R; for inhibition at 1 µM: in duplicate, read-out: inhibition of binding
T1 construct: purchased Millipore 14-802
T1 sequence (P08069 31-1367): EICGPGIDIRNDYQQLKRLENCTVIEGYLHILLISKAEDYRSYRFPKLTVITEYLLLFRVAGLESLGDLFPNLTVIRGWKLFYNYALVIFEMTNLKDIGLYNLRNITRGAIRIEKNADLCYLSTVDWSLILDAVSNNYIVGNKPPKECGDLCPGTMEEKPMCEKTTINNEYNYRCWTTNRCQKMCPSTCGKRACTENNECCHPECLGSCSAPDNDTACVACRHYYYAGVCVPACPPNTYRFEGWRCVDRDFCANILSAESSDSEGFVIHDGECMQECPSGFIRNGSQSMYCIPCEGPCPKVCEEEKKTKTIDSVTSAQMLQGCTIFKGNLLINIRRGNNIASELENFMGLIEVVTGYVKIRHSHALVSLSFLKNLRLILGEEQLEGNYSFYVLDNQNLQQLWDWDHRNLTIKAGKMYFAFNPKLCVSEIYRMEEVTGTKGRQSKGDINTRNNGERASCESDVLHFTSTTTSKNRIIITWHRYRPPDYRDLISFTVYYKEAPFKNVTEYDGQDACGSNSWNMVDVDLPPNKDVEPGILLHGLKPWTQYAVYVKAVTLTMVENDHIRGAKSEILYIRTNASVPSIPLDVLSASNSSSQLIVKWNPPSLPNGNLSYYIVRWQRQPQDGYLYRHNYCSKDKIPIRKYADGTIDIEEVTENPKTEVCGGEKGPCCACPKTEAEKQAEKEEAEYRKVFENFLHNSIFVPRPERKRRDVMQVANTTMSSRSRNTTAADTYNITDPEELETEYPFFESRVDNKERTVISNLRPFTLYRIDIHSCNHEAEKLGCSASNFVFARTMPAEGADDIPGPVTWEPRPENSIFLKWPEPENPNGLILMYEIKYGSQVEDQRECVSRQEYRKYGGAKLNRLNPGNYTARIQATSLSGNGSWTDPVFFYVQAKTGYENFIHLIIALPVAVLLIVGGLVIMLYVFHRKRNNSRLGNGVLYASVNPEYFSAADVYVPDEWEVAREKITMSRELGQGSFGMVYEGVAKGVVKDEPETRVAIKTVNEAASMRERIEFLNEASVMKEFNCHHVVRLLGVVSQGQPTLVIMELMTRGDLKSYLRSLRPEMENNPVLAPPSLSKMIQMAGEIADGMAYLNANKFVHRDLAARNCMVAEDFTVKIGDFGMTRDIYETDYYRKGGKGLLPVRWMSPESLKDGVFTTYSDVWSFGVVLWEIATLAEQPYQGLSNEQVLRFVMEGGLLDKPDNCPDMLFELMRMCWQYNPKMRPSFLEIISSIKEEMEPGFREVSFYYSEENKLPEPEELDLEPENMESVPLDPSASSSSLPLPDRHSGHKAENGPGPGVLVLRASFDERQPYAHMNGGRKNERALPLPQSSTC
Procedure: (§1) IC50 values of the compounds of the invention against IGF-1R and IR were measured in vitro using an ADP-Glo kinase assay Kit (Promega). […] Kinase reactions in both assays were conducted at 30° C. for 20 min with increasing concentrations of compounds of the invention.
Additional compounds of the invention were screened against activated IGF-1R.

IR [2] = biological target: T2, IR (Homo sapiens, UniProt P06213); assay: In vitro IR enzymatic assay (ADP-Glo kinase assay); format: biochemical; settings: activated IR, 30 nM
T2 construct: purchased Millipore 14-803
T2 sequence (P06213 28-1382): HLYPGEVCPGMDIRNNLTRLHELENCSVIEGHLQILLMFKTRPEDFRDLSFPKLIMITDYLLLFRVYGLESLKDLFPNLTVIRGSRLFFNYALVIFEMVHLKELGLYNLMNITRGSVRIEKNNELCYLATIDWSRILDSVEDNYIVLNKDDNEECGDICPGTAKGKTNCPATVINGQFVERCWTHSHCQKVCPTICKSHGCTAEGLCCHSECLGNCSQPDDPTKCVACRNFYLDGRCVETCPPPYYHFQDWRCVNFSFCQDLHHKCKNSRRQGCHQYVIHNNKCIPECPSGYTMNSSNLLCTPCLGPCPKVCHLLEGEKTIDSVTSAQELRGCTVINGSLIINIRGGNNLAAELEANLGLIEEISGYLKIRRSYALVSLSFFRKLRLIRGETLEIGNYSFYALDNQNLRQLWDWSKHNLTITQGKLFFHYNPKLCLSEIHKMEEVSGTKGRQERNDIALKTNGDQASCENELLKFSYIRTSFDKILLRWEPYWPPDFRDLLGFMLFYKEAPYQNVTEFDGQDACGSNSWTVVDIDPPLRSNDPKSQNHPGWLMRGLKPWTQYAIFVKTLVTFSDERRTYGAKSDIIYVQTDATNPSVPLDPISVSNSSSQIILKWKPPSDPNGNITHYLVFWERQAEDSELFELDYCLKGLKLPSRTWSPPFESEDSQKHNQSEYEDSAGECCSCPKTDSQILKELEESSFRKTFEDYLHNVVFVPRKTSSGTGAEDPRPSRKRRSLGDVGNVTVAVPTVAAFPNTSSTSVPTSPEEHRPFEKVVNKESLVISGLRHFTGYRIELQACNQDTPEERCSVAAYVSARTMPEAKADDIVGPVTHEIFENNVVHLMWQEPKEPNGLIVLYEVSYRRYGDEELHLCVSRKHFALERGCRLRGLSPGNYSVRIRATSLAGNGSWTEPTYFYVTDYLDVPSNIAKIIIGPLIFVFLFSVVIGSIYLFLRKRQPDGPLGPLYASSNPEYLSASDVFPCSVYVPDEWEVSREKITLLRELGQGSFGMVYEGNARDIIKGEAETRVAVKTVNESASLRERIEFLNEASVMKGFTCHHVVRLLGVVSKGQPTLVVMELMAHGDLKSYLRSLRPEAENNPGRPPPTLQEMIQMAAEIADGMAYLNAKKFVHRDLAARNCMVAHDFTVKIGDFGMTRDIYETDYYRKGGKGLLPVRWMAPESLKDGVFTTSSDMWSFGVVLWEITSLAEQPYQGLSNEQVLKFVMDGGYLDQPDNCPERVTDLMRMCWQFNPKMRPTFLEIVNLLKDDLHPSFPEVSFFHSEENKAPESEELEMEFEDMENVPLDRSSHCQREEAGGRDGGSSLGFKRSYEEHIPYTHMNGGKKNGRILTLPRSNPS
Procedure: as §1
Additional compounds of the invention were screened against activated IR.

IR [3] = biological target: T2, IR; assay: In vitro IR enzymatic assay (ADP-Glo kinase assay); format: biochemical; settings: activated IR, in duplicate, read-out: inhibition of binding
Trk C = Trk C (Homo sapiens, UniProt Q16288); assay: HotSpot kinase assay: Trk C; format: biochemical; settings: 100 nM compound, HotSpot; for inhibition at 0.1 µM: read-out: % Enzyme Inhibition @ 100 nM Trk C
Trk C, sequence (Q16288 32-839): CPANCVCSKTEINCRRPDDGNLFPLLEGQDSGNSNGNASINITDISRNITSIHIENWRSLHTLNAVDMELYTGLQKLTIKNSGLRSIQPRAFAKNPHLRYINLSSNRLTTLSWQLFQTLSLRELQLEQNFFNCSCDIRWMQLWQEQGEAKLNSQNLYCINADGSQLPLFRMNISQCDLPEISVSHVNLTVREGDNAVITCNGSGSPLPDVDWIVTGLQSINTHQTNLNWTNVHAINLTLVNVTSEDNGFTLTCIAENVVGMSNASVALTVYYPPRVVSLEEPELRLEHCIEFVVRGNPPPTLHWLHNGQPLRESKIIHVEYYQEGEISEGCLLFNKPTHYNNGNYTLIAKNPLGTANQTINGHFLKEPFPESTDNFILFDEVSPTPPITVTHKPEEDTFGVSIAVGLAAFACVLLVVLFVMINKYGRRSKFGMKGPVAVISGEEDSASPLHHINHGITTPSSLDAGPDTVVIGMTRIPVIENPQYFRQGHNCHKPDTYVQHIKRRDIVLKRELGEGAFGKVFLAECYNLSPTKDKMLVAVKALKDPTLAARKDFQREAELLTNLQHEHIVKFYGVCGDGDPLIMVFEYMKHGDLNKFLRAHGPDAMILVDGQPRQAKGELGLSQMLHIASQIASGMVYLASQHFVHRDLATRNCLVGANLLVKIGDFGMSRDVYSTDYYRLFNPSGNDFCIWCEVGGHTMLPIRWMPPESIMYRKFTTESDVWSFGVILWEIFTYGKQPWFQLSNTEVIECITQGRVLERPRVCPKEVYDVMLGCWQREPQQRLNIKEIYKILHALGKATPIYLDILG
Procedure: (§2) Each compound was tested at a concentration of 0.1 μM in single duplicate mode against the 3 kinases. Compounds were prepared as 10 mM stock solutions in DMSO prior to use in the assay. […] IC50 values and curve fits were obtained using Prism (GraphPad Software).
(§3) The screening was performed using the “HotSpot” assay platform. The assay measures the conversion of a peptide substrate to ^33P-labelled phosphorylated product. Briefly, specific kinase/substrate pairs along with required cofactors were prepared in reaction buffer. Specifically, the substrate was prepared in reaction buffer (20 mM Hepes, pH 7.5; 10 mM MgCl2; 1 mM EGTA; 0.02% Brij35; 0.02 mg/mL BSA; 0.1 mM Na3VO4; 2 mM DTT; 1% DMSO), followed by delivery of any required cofactor to the resulting substrate solution. The corresponding kinase was delivered into the substrate solution and the reaction mixture was mixed gently. Compound was delivered into the reaction mixture, followed 15-20 minutes later by addition of a mixture of ATP (Sigma, St. Louis Mo.) and ^33P ATP (specific activity 0.01 μCi/μL final; Perkin Elmer, Waltham, Mass.) to a final concentration of 10 μM-30 μM to initiate the reaction. […] The percent of enzyme inhibition was calculated based on the percent of remaining kinase activity.
as §2, with “Kinase assays were performed using additional compounds against a panel of 4 kinases: AXL; c-Met; c-Mer; and Trk C. Each” for “Each”, “[…]” for “μM”, “4” for “3”

Trk B = Trk B (Homo sapiens, UniProt Q16620); assay: HotSpot kinase assay: Trk B; format: biochemical; settings: 100 nM compound; for inhibition at 0.1 µM: read-out: % Enzyme Inhibition @ 100 nM Trk B
Trk B, sequence (Q16620 32-822): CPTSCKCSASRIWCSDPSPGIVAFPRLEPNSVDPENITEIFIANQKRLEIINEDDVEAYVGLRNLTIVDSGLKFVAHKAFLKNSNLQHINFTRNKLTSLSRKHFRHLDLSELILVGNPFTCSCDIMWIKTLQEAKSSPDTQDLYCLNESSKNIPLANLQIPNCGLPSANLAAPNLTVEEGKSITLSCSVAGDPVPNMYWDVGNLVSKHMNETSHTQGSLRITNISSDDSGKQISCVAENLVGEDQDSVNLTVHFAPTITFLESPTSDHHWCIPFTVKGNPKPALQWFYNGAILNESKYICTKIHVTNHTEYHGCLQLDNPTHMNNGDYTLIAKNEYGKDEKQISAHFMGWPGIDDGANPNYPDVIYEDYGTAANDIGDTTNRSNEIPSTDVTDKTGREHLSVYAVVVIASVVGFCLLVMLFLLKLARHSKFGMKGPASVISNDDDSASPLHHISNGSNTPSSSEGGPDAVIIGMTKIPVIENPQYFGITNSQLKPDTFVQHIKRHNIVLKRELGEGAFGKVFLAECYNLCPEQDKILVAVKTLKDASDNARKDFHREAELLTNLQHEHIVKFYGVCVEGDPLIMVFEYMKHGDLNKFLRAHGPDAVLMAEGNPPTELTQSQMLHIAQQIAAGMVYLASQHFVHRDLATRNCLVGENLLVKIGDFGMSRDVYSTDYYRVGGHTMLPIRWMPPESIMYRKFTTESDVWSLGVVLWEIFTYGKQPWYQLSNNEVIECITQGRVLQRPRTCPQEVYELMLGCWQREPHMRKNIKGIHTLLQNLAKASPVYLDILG
Procedure: as §2, §3

Trk A = Trk A (Homo sapiens, UniProt P04629); assay: HotSpot kinase assay: Trk A; format: biochemical; settings: 100 nM compound; for inhibition at 0.1 µM: read-out: % Enzyme Inhibition @ 100 nM Trk A
Trk A, sequence (P04629 33-796): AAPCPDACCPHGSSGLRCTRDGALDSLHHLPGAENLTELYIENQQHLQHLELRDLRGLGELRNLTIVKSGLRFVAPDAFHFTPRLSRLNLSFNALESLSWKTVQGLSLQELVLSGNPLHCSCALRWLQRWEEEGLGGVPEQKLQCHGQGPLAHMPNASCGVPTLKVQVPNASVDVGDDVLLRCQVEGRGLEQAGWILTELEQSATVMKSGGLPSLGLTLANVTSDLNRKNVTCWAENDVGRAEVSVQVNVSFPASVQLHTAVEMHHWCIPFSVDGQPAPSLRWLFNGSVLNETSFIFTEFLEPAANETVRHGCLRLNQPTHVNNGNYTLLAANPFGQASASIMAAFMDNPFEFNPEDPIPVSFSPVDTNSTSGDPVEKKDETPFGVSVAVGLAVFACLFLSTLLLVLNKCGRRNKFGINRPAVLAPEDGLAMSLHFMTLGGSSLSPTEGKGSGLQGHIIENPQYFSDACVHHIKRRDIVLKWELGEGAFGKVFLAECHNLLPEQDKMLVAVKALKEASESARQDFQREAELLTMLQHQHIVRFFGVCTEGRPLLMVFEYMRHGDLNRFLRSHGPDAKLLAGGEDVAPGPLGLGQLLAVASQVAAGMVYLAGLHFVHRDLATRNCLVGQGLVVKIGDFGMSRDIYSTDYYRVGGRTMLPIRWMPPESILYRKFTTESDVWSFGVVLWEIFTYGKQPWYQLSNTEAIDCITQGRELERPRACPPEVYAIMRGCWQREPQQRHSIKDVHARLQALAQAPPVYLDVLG
Procedure: as §2, with “Kinase assays were performed using additional compounds against a panel of 3 kinases: Trk A; Trk B; and Trk C. Each” for “Each”, “Software). […]” for “Software).”
The screening was performed using the “HotSpot” assay platform. The assay measures the conversion of a peptide substrate to ^33P-labelled phosphorylated product. Briefly, specific kinase/substrate pairs along with required cofactors were prepared in reaction buffer. Specifically, the substrate was prepared in reaction buffer (20 mM Hepes, pH 7.5; 10 mM MgCl2; 1 mM EGTA; 0.02% Brij35; 0.02 mg/mL BSA; 0.1 mM Na3VO4; 2 mM DTT; 1% DMSO), followed by delivery of any required cofactor to the resulting substrate solution. The corresponding kinase was delivered into the substrate solution and the reaction mixture was mixed gently. Compound was delivered into the reaction mixture, followed 15-20 minutes later by addition of a mixture of ATP (Sigma, St. Louis Mo.) and ^33P ATP (specific activity 0.01 μCi/μL final; Perkin Elmer, Waltham, Mass.) to a final concentration of 10 μM-30 μM to initiate the reaction. Reactions were carried out at room temperature for 120 minutes, followed by spotting of the reactions onto P81 ion exchange filter paper (Whatman #3698-915; Whatman Inc., Piscataway, N.J.). Unbound phosphate was removed by extensive washing of filters in 0.75% phosphoric acid. […] The percent of enzyme inhibition was calculated based on the percent of remaining kinase activity.

O=C(Nc1ccc(F)nc1)C1CCCCN1c1nc2c(c(Nc3cc(C4CCCC4)[nH]n3)n1)CCC2 (single isomer, unassigned) [Compound 17b, 1-(4-(5-cyclopentyl-1H-pyrazol-3-ylamino)-6,7-dihydro-5H-cyclopenta[d]pyrimidin-2-yl)-N-(6-fluoropyridin-3-yl)piperidine-2-carboxamide]
Levels of phosphorylated AKT in treated cells (pAKT/actin) ([1]; 0.1 nM compound): 0.83 | p-AKT relative to levels with 0.1 nM compound ([1]; 0.1 nM): 1.0 | Normalized phosphorylated AKT (relative to actin) levels relative to 0.1 nM compound treatment ([1]; 0.1 nM): 1.0 | Levels of phosphorylated AKT in treated cells (pAKT/actin) ([1]; 1 nM compound): 0.99 | p-AKT relative to levels with 0.1 nM compound ([1]; 1 nM): 1.2 | Normalized phosphorylated AKT (relative to actin) levels relative to 0.1 nM compound treatment ([1]; 1 nM): 1.2 | Levels of phosphorylated AKT in treated cells (pAKT/actin) ([1]; 10 nM compound): 0.95 | p-AKT relative to levels with 0.1 nM compound ([1]; 10 nM): 1.1 | Normalized phosphorylated AKT (relative to actin) levels relative to 0.1 nM compound treatment ([1]; 10 nM): 1.1 | Levels of phosphorylated AKT in treated cells (pAKT/actin) ([1]; 100 nM compound): 1.08 | p-AKT relative to levels with 0.1 nM compound ([1]; 100 nM): 1.3 | Normalized phosphorylated AKT (relative to actin) levels relative to 0.1 nM compound treatment ([1]; 100 nM): 1.3 | % Inh @ 30 nM (N1) (IGF-1R; 30 nM, N1, 0.03 µM): 21% | % Inh @ 30 nM (N2) (IGF-1R; 30 nM, N2, 0.03 µM): 23% | % Inh @ 30 nM Avg (IGF-1R; 30 nM, average): 22% | % Inh @ 30 nM (N1) (IR [2]; N1): 2% | % Inh @ 30 nM (N2) (IR [2]; N2, 0.03 µM): 10% | % Inh @ 30 nM Avg (IR [2]; average): 6%

CC(C)c1cc(Nc2nc(N3CC(O)CC3C(=O)N3CCCCC3)nc3c2CCC3)n[nH]1 (stereo not shown) [Compound 107a, (4-hydroxy-1-(4-(5-isopropyl-1H-pyrazol-3-ylamino)-6,7-dihydro-5H-cyclopenta[d]pyrimidin-2-yl)pyrrolidin-2-yl)(piperidin-1-yl)methanone]
inhibition at 1 µM (IR [3]): ≤ 40% | % Enzyme Inhibition @ 100 nM Trk C (Trk C): +++ (High (60% or higher inhibition, +++)) | % Enzyme Inhibition @ 100 nM Trk B (Trk B): ++ (Medium (40 to 59% inhibition, ++)) | inhibition at 1 µM (IGF-1R): < 35% | % Enzyme Inhibition @ 100 nM Trk A (Trk A): + (Low (39% or lower inhibition, +))

CC(C)c1cc(Nc2nc(N3CC(O)CC3C(=O)N3CCCCC3)nc3c2CCC3)n[nH]1 (stereo not shown) [Compound 107b, (4-hydroxy-1-(4-(5-isopropyl-1H-pyrazol-3-ylamino)-6,7-dihydro-5H-cyclopenta[d]pyrimidin-2-yl)pyrrolidin-2-yl)(piperidin-1-yl)methanone]
% Enzyme Inhibition @ 100 nM Trk C (Trk C): + (Low (39% or lower inhibition, +)) | inhibition at 0.1 µM (Trk B): < 39% | inhibition at 0.1 µM (Trk A): < 39%

O=C(C1CC(O)CN1c1nc2c(c(Nc3cc(C4CCCC4)[nH]n3)n1)CCC2)N1CCCCC1 (stereo not shown) [Compound 108a, (1-(4-(5-cyclopentyl-1H-pyrazol-3-ylamino)-6,7-dihydro-5H-cyclopenta[d]pyrimidin-2-yl)-4-hydroxypyrrolidin-2-yl)(piperidin-1-yl)methanone]
inhibition at 1 µM (IR [3]): ≤ 40% | % Enzyme Inhibition @ 100 nM Trk C (Trk C): +++ (High (60% or higher inhibition, +++)) | % Enzyme Inhibition @ 100 nM Trk B (Trk B): +++ (High (60% or higher inhibition, +++)) | inhibition at 1 µM (IGF-1R): < 35% | % Enzyme Inhibition @ 100 nM Trk A (Trk A): + (Low (39% or lower inhibition, +))

O=C(C1CC(O)CN1c1nc2c(c(Nc3cc(C4CCCC4)[nH]n3)n1)CCC2)N1CCCCC1 (stereo not shown) [Compound 108b, (1-(4-(5-cyclopentyl-1H-pyrazol-3-ylamino)-6,7-dihydro-5H-cyclopenta[d]pyrimidin-2-yl)-4-hydroxypyrrolidin-2-yl)(piperidin-1-yl)methanone]
inhibition at 0.1 µM (Trk C): > 60% | inhibition at 0.1 µM (Trk B): 40 to 59% | inhibition at 0.1 µM (Trk A): 40 to 59%

CC(C)c1cc(Nc2nc(N3CC(O)CC3C(=O)N(C)C)nc3c2CCC3)n[nH]1 (stereo not shown) [Compound 109a, 4-hydroxy-1-(4-(5-isopropyl-1H-pyrazol-3-ylamino)-6,7-dihydro-5H-cyclopenta[d]pyrimidin-2-yl)-N,N-dimethylpyrrolidine-2-carboxamide]
inhibition at 1 µM (IR [3]): ≤ 40% | inhibition at 0.1 µM (Trk C): < 39% | inhibition at 0.1 µM (Trk B): < 39% | inhibition at 1 µM (IGF-1R): < 35% | inhibition at 0.1 µM (Trk A): < 39%

CN(C)C(=O)C1CC(O)CN1c1nc2c(c(Nc3cc(C4CCCC4)[nH]n3)n1)CCC2 (stereo not shown) [Compound 110a, 1-(4-(5-cyclopentyl-1H-pyrazol-3-ylamino)-6,7-dihydro-5H-cyclopenta[d]pyrimidin-2-yl)-4-hydroxy-N,N-dimethylpyrrolidine-2-carboxamide]
inhibition at 1 µM (IR [3]): ≤ 40% | % Enzyme Inhibition @ 100 nM Trk C (Trk C): +++ (High (60% or higher inhibition, +++)) | % Enzyme Inhibition @ 100 nM Trk B (Trk B): ++ (Medium (40 to 59% inhibition, ++)) | inhibition at 1 µM (IGF-1R): < 35% | % Enzyme Inhibition @ 100 nM Trk A (Trk A): + (Low (39% or lower inhibition, +))

CN(C)C(=O)C1CC(O)CN1c1nc2c(c(Nc3cc(C4CCCC4)[nH]n3)n1)CCC2 (stereo not shown) [Compound 110b, 1-(4-(5-cyclopentyl-1H-pyrazol-3-ylamino)-6,7-dihydro-5H-cyclopenta[d]pyrimidin-2-yl)-4-hydroxy-N,N-dimethylpyrrolidine-2-carboxamide]
inhibition at 0.1 µM (Trk C): 40 to 59% | inhibition at 0.1 µM (Trk B): < 39% | inhibition at 0.1 µM (Trk A): < 39%

O=C(C1CCCN1c1nc2c(c(Nc3cc(C4CCCC4)[nH]n3)n1)CCC2)N1CCCCC1 (stereo not shown) [Compound 111a, (1-(4-(5-cyclopentyl-1H-pyrazol-3-ylamino)-6,7-dihydro-5H-cyclopenta[d]pyrimidin-2-yl)pyrrolidin-2-yl)(piperidin-1-yl)methanone]
inhibition at 1 µM (IR [3]): ≤ 40% | inhibition at 0.1 µM (Trk C): > 60% | inhibition at 0.1 µM (Trk B): > 60% | inhibition at 1 µM (IGF-1R): < 35% | inhibition at 0.1 µM (Trk A): 40 to 59%

O=C(C1CCCN1c1nc2c(c(Nc3cc(C4CCCCC4)[nH]n3)n1)CCC2)N1CCCCC1 (stereo not shown) [Compound 113b, (1-(4-(5-cyclohexyl-1H-pyrazol-3-ylamino)-6,7-dihydro-5H-cyclopenta[d]pyrimidin-2-yl)pyrrolidin-2-yl)(piperidin-1-yl)methanone]
inhibition at 0.1 µM (Trk C): > 60% | % Enzyme Inhibition @ 100 nM Trk B (Trk B): +++ (High (60% or higher inhibition, +++)) | inhibition at 0.1 µM (Trk A): 40 to 59%

CN(C)C(=O)C1CCCN1c1nc2c(c(Nc3cc(C4CCCCC4)[nH]n3)n1)CCC2 (stereo not shown) [Compound 114b, 1-(4-(5-cyclohexyl-1H-pyrazol-3-ylamino)-6,7-dihydro-5H-cyclopenta[d]pyrimidin-2-yl)-N,N-dimethylpyrrolidine-2-carboxamide]
inhibition at 0.1 µM (Trk C): > 60% | inhibition at 0.1 µM (Trk B): > 60% | inhibition at 0.1 µM (Trk A): < 39%
